Measurements as given in patent EP4603105A1, “PHARMACEUTICAL COMPOSITION CONTAINING CYCLIC COMPOUND HAVING SELECTIVE KRAS INHIBITORY EFFECT AGAINST HRAS AND NRAS” (CHUGAI SEIYAKU KABUSHIKI KAISHA, priority 2022, dated 2024).

Key:
HRAS wild-type protein = HRAS wild-type protein (Homo sapiens, UniProt P01112); assay: Binding to HRAS by surface plasmon resonance (SPR), KD and KD ratio to KRAS; conditions: ratio of KD for HRAS wild-type protein to KD for KRAS
Summary of the method: (§1)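 Each cycle, GDP-bound biotin-Avi RAS was captured (~100–300 RU), compound concentrations were injected low to high for 75 s each at 100 µL/min, then the chip was regenerated. Buffer: HBS pH 7.4, 10 mM MgCl2, 10 µM GDP, 1 mM DTT, 4% DMSO; 30°C. KD from a 1:1 binding model.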

[1] = system: human lung cancer strain NCI-H441; format: cell-based
Summary of the method: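 Signal came from […] measured per well once the reagent was added. Beforehand, cells were cultured at 37°C and 5% carbon dioxide on a compound series serially diluted in dimethyl sulfoxide.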

[2] = molecular target: GDP-bound NRAS wild-type protein (Homo sapiens, UniProt P01111); assay: Binding to NRAS by surface plasmon resonance (SPR), KD and KD ratio to KRAS; conditions: ratio of KD for GDP-bound NRAS wild-type protein to KD for KRAS
Summary of the method: as §1

Sequence of HRAS wild-type protein (P01112 whole entry): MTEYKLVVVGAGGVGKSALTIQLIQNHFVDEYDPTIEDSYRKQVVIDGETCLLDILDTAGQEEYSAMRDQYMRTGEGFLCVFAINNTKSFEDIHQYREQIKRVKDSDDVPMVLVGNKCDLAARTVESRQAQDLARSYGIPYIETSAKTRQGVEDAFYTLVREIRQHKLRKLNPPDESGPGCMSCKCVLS
Sequence of GDP-bound NRAS wild-type protein (P01111 whole entry): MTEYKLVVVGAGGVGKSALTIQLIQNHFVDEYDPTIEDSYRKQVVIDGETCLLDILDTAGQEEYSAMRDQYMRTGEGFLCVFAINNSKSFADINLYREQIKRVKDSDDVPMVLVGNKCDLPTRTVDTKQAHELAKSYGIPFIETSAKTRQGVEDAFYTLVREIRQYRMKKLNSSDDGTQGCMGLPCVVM

Compound | HRAS /KRAS (HRAS wild-type protein) | IC50 [1] | NRAS /KRAS [2]
CC[C@H](C)[C@@H]1NC(=O)[C@H](COC)N(C)C(=O)C[C@@H](C(=O)N2CCOCC2)N(C)C(=O)[C@H](C2CCCC2)N(C)C(=O)C2(CCC2)NC(=O)[C@@H]2CC(F)(F)CN2C(=O)[C@H](CCc2cc(F)c(C(F)(F)F)c(F)c2)NC(=O)CN(C)C(=O)[C@H](Cc2ccc(C(F)(F)F)cc2)N2CCCCC[C@@H](C2=O)N(C)C(=O)CNC1=O [PP0861] | B (a compound having 3 or more and less than 10 is denoted as B) | 0.0207 µM | B (a compound having 3 or more and less than 10 is denoted as B)
CCO[C@@H]1C[C@H]2C(=O)NC3(CCC3)C(=O)N(C)[C@@H](C3CCCC3)C(=O)N(C)[C@H](C(=O)N3CCOCC3)CC(=O)N(C)[C@@H](COC)C(=O)N[C@@H]([C@@H](C)CC)C(=O)N3CC[C@H]3C(=O)N(C)[C@H]3CCCCCN(C3=O)[C@@H](Cc3ccc(C(F)(F)F)cc3)C(=O)N(C)CC(=O)N[C@@H](CCc3cc(F)c(C(F)(F)F)c(F)c3)C(=O)N2C1 [PP0863] | B (a compound having 3 or more and less than 10 is denoted as B) | 0.229 µM | B (a compound having 3 or more and less than 10 is denoted as B)
CCO[C@@H]1C[C@H]2C(=O)NC3(CCC3)C(=O)N(C)[C@@H](C3CCCC3)C(=O)N(C)[C@H](C(=O)N(C)C)CC(=O)N(C)[C@@H](COC)C(=O)N[C@@H]([C@@H](C)CC)C(=O)N3CC[C@H]3C(=O)N(C)[C@H]3CCCCCN(C3=O)[C@@H](Cc3ccc(C(F)(F)F)cc3)C(=O)N(C)CC(=O)N[C@@H](CCc3cc(F)c(C(F)(F)F)c(F)c3)C(=O)N2C1 [PP0864] | B (a compound having 3 or more and less than 10 is denoted as B) | 0.185 µM | B (a compound having 3 or more and less than 10 is denoted as B)
CC[C@H](C)[C@@H]1NC(=O)[C@H](COC)N(C)C(=O)C[C@@H](C(=O)N2CCOCC2)N(C)C(=O)[C@H](C2CCCC2)N(C)C(=O)C2(CCC2)NC(=O)[C@@H]2CCCN2C(=O)[C@H](CCc2cc(F)c(C(F)(F)F)c(F)c2)NC(=O)CN(C)C(=O)[C@H](Cc2ccc(C(F)(F)F)cc2)N2CCCCC[C@@H](C2=O)N(C)C(=O)[C@@H]2CCN2C1=O [PP0865] | B (a compound having 3 or more and less than 10 is denoted as B) | 0.767 µM | B (a compound having 3 or more and less than 10 is denoted as B)
CC[C@H](C)[C@@H]1NC(=O)[C@H](COC)N(C)C(=O)C[C@@H](C(=O)N2CCOCC2)N(C)C(=O)[C@H](C2CCCC2)N(C)C(=O)C2(CCC2)NC(=O)[C@@H]2CC(F)(F)CN2C(=O)[C@H](CCc2cc(F)c(C(F)(F)F)c(F)c2)NC(=O)CN(C)C(=O)[C@H](Cc2ccc(C(F)(F)F)cc2)N2CCCCC[C@@H](C2=O)N(C)C(=O)[C@@H]2CCN2C1=O [PP0866] | B (a compound having 3 or more and less than 10 is denoted as B) | 0.197 µM | B (a compound having 3 or more and less than 10 is denoted as B)
CC[C@H](C)[C@@H]1NC(=O)[C@H](CC(C)C)N(C)C(=O)C[C@@H](C(=O)N2CCOCC2)N(C)C(=O)[C@H](C2CCCC2)N(C)C(=O)C2(CCC2)NC(=O)[C@@H]2C[C@@H](O)CN2C(=O)[C@H](CCc2cc(F)c(C(F)(F)F)c(F)c2)NC(=O)CN(C)C(=O)[C@H](Cc2ccc(C(F)(F)F)cc2)N2CCCC[C@@H](C2=O)N(C)C(=O)CN(C)C1=O [PP0868] | B (a compound having 3 or more and less than 10 is denoted as B) | 0.0708 µM | C (A compound having a KD ratio of 0.1 or more and less than 3 is denoted as C)
CC[C@H](C)[C@@H]1NC(=O)[C@H](CC(C)C)N(C)C(=O)C[C@@H](C(=O)N2CCOCC2)N(C)C(=O)[C@H](C2CCCC2)N(C)C(=O)C2(CCC2)NC(=O)[C@@H]2[C@@H](O)CCN2C(=O)[C@H](CCc2cc(F)c(C(F)(F)F)c(F)c2)NC(=O)CN(C)C(=O)[C@H](Cc2ccc(C(F)(F)F)cc2)N2CCCC[C@@H](C2=O)N(C)C(=O)CN(C)C1=O [PP0869] | B (a compound having 3 or more and less than 10 is denoted as B) | 0.134 µM | B (a compound having 3 or more and less than 10 is denoted as B)
CC[C@H](C)[C@@H]1NC(=O)[C@H](CC(C)C)N(C)C(=O)C[C@@H](C(=O)N2CCOCC2)N(C)C(=O)[C@H](C2CCCC2)N(C)C(=O)C2(CCC2)NC(=O)[C@@H]2[C@H](O)CCN2C(=O)[C@H](CCc2cc(F)c(C(F)(F)F)c(F)c2)NC(=O)CN(C)C(=O)[C@H](Cc2ccc(C(F)(F)F)cc2)N2CCCC[C@@H](C2=O)N(C)C(=O)CN(C)C1=O [PP0870] | B (a compound having 3 or more and less than 10 is denoted as B) | 0.0797 µM | B (a compound having 3 or more and less than 10 is denoted as B)
C=CC[C@H]1C(=O)N[C@@H]([C@@H](C)CC)C(=O)N(C)CC(=O)N(C)[C@H]2CCCCN(C2=O)[C@@H](Cc2ccc(C(F)(F)F)cc2)C(=O)N(C)CC(=O)N[C@@H](CCc2cc(F)c(C(F)(F)F)c(F)c2)C(=O)N2C[C@H](OCC)C[C@H]2C(=O)N[C@](C)(CC=C)C(=O)N(C)[C@@H](C2CCCC2)C(=O)N(C)[C@H](C(=O)N2CCOCC2)CC(=O)N1C [PP0874] | B (a compound having 3 or more and less than 10 is denoted as B) | 0.0049 µM | C (A compound having a KD ratio of 0.1 or more and less than 3 is denoted as C)
C=CCC[C@H]1C(=O)N[C@@H]([C@@H](C)CC)C(=O)N(C)CC(=O)N(C)[C@H]2CCCCN(C2=O)[C@@H](Cc2ccc(C(F)(F)F)cc2)C(=O)N(C)CC(=O)N[C@@H](CCc2cc(F)c(C(F)(F)F)c(F)c2)C(=O)N2C[C@H](OCC)C[C@H]2C(=O)N[C@](C)(CC=C)C(=O)N(C)[C@@H](C2CCCC2)C(=O)N(C)[C@H](C(=O)N2CCOCC2)CC(=O)N1C [PP0875] | B (a compound having 3 or more and less than 10 is denoted as B) | 0.0048 µM | C (A compound having a KD ratio of 0.1 or more and less than 3 is denoted as C)
C=CCCC[C@H]1C(=O)N[C@@H]([C@@H](C)CC)C(=O)N(C)CC(=O)N(C)[C@H]2CCCCN(C2=O)[C@@H](Cc2ccc(C(F)(F)F)cc2)C(=O)N(C)CC(=O)N[C@@H](CCc2cc(F)c(C(F)(F)F)c(F)c2)C(=O)N2C[C@H](OCC)C[C@H]2C(=O)N[C@](C)(CC=C)C(=O)N(C)[C@@H](C2CCCC2)C(=O)N(C)[C@H](C(=O)N2CCOCC2)CC(=O)N1C [PP0876] | C (A compound having a KD ratio of 0.1 or more and less than 3 is denoted as C) | 0.0071 µM | C (A compound having a KD ratio of 0.1 or more and less than 3 is denoted as C)
C=CCCCC[C@H]1C(=O)N[C@@H]([C@@H](C)CC)C(=O)N(C)CC(=O)N(C)[C@H]2CCCCN(C2=O)[C@@H](Cc2ccc(C(F)(F)F)cc2)C(=O)N(C)CC(=O)N[C@@H](CCc2cc(F)c(C(F)(F)F)c(F)c2)C(=O)N2C[C@H](OCC)C[C@H]2C(=O)N[C@](C)(CC=C)C(=O)N(C)[C@@H](C2CCCC2)C(=O)N(C)[C@H](C(=O)N2CCOCC2)CC(=O)N1C [PP0877] | B (a compound having 3 or more and less than 10 is denoted as B) | 0.0188 µM | C (A compound having a KD ratio of 0.1 or more and less than 3 is denoted as C)
C=CC[C@H]1C(=O)N[C@@H]([C@@H](C)CC)C(=O)N(C)CC(=O)N(C)[C@H]2CCCCCN(C2=O)[C@@H](Cc2ccc(C(F)(F)F)cc2)C(=O)N(C)CC(=O)N[C@@H](CCc2cc(F)c(C(F)(F)F)c(F)c2)C(=O)N2C[C@H](OCC)C[C@H]2C(=O)N[C@](C)(CC=C)C(=O)N(C)[C@@H](C2CCCC2)C(=O)N(C)[C@H](C(=O)N2CCOCC2)CC(=O)N1C [PP0878] | B (a compound having 3 or more and less than 10 is denoted as B) | 0.0859 µM | B (a compound having 3 or more and less than 10 is denoted as B)
CCO[C@@H]1C[C@H]2C(=O)NC3(CCC3)C(=O)N(C)[C@@H](C3CCCC3)C(=O)N(C)[C@H](C(=O)N(C)C)CC(=O)N(C)[C@@H](CC)C(=O)N[C@@H]([C@@H](C)CC)C(=O)N(C)CC(=O)N(C)[C@H]3CCCCN(C3=O)[C@@H](Cc3ccc(C(F)(F)F)cc3)C(=O)N(C)CC(=O)N[C@@H](CCc3ccc(C(F)(F)F)c(C)c3)C(=O)N2C1 [PP0882] | B (a compound having 3 or more and less than 10 is denoted as B) | 0.0071 µM | C (A compound having a KD ratio of 0.1 or more and less than 3 is denoted as C)
CCO[C@@H]1C[C@H]2C(=O)NC3(CCC3)C(=O)N(C)[C@@H](C3CCCC3)C(=O)N(C)[C@H](C(=O)N(C)C)CC(=O)N(C)[C@@H](CC)C(=O)N[C@@H]([C@@H](C)CC)C(=O)N(C)CC(=O)N(C)[C@H]3CCCCN(C3=O)[C@@H](Cc3ccc(C(F)(F)F)cc3)C(=O)N(C)CC(=O)N[C@@H](CCc3ccc(C(F)(F)F)c(OC)c3)C(=O)N2C1 [PP0884] | C (A compound having a KD ratio of 0.1 or more and less than 3 is denoted as C) | 0.0062 µM | C (A compound having a KD ratio of 0.1 or more and less than 3 is denoted as C)
CCO[C@@H]1C[C@H]2C(=O)NC3(CCC3)C(=O)N(C)[C@@H](C3CCCC3)C(=O)N(C)[C@H](C(=O)N(C)C)CC(=O)N(C)[C@@H](CC)C(=O)N[C@@H]([C@@H](C)CC)C(=O)N(C)CC(=O)N(C)[C@H]3CCCCN(C3=O)[C@@H](Cc3ccc(C(F)(F)F)cc3)C(=O)N(C)CC(=O)N[C@@H](CCc3ccc(C(F)(F)F)cc3F)C(=O)N2C1 [PP0885] | B (a compound having 3 or more and less than 10 is denoted as B) | 0.0115 µM | C (A compound having a KD ratio of 0.1 or more and less than 3 is denoted as C)
